Results reported in patent US8143217B2, “Use of DPP-IV inhibitor to reduce hypoglycemic events” (Novartis AG, priority 2005, dated 2012).

Tested on: patients with type 2 diabetes treated with insulin
Test: Clinical study: 24 weeks LAF237 50 mg bid vs placebo as add-on to insulin, hypoglycemic episodes
Type: in vivo, human
Conditions: for Number of severe hypoglycemic episodes (Panel C): severe = requiring assistance of another party; for Number of severe hypoglycemic events compared with placebo group: P=0.032, chi-square test of two Poisson rates
Description: A multicenter, double-blind, randomized, parallel-group study to compare the effect of 24 weeks treatment with LAF237 50 mg bid to placebo as add-on therapy in patients with type 2 diabetes treated with insulin.
In addition to treatment with insulin, patients are assigned to double-blind treatment of LAF237 50 mg bid or placebo in a ratio of 1:1.
This is a multicenter, randomized, double-blind, placebo-controlled study. Patients with type 2 diabetes (HbA1c 7.5-11%) who have been treated for at least 3 months with insulin is eligible for participation in the trial. Eligible patients are randomized equally to LAF237 50 mg bid or placebo in addition to continuing their insulin therapy. The insulin dose can be adjusted downward as clinically indicated but upward adjustments should not exceed 25% of the baseline insulin dose.
Each patient attends one screening visit (Week-4) where the inclusion/exclusion criteria is assessed. Eligible patients are then be randomized at Visit 2 (Baseline, Day 1) and complete 5 further visits over a period of 24 weeks of treatment with LAF237 or placebo added to insulin.
Patients were instructed to perform self-monitored blood glucose measurements (SMBG) any time hypoglycemia was suspected and prior to breakfast at least 3 times per week. […] Severe hypoglycemia was defined as any episode requiring the assistance of another party (with low plasma glucose value<3.1 mmol/L unless the severity of the event precluded glucose determination).

[1] = 24-week treatment, vildagliptin 50 mg bid added to insulin (n = 144)

## N#C[C@@H]1CCCN1C(=O)CNC12CC3CC(CC(O)(C3)C1)C2 [vildagliptin, (S)-1-[(3-hydroxy-1-adamantyl)amino]acetyl-2-cyano-pyrrolidine]
[1]
  Total number of hypoglycemic episodes reported (Panel B): 113 episodes
  Number of severe hypoglycemic episodes (Panel C): none
24-week treatment, vildagliptin 50 mg bid added to insulin (n = 144), hypoglycemia = symptoms confirmed by SMBG<3.1 mmol/L
  Number of patients reporting any hypoglycemic episode (Panel A): 33 patients
24-week treatment, vildagliptin 50 mg bid added to insulin (n = 144), listed as LAF237
  Number of severe hypoglycemic episodes (Panel C): did not show any severe hypoglycaemic episodes
24-week treatment, vildagliptin 50 mg bid added to insulin (n = 144), listed as Vildagliptin + Insulin
  Number of severe hypoglycemic episodes (Panel C): 0 episodes
Added to insulin in type 2 diabetes patients
  Effect against insulin-induced hypoglycemia: protective effect
Vildagliptin 50 mg bid vs placebo, both added to insulin, 24 weeks, P<0.001, chi-square test of two Poisson rates
  Number of hypoglycemic events compared with placebo group: statistically significantly lower
Vildagliptin 50 mg bid vs placebo, both added to insulin, 24 weeks
  Number of severe hypoglycemic events compared with placebo group: statistically significantly lower
Vildagliptin 50 mg bid vs placebo, both added to insulin, 24 weeks, listed as LAF237
  Number of severe hypoglycemic events compared with placebo group: fewer severe hypoglycaemic episodes
